Literature values in PubChem BioAssay AID1259409 (Chemical Carcinogenesis Research Information System (CCRIS), 2018).

System: rodent chemically induced tumor inhibition, incidence and multiplicity
Assay: CCRIS tumor inhibitor studies
Conditions: Carcinogen: OCHRATOXIN A, 303-47-9, Route [Inhibitor]: ORAL, Species: RAT, Dose [Carcinogen]: 0.4 MG/KG BW 3X/WK FOR LIFETIME, Promoter: NONE

Question: Which outcome (Dose [Inhibitor]: 1 G/L IN DRINKING WATER FOR LIFETIME (STUDY DURATION: LIFETIME), Strain/Sex: DA/FEMALE, Target Tissue: Type of Lesion: URETHRA: TRANSITIONAL CELL CARCINOMA) does the source give for `O=S(=O)(O)CCS` here?
Answer: 0/40 (0%), 0/40 (0%), 0%, not significant

Question: And the outcome (Dose [Inhibitor]: 1 G/L IN DRINKING WATER FOR LIFETIME (STUDY DURATION: LIFETIME), Strain/Sex: DA/FEMALE, Target Tissue: Type of Lesion: URINARY BLADDER: TRANSITIONAL CELL CARCINOMA)?
Answer: 0/40 (0%), 0/40 (0%), 0%, not significant

Question: And the “tumour outcome (control, treated, inhibition, significance)” value (Dose [Inhibitor]: 1 G/L IN DRINKING WATER FOR LIFETIME (STUDY DURATION: LIFETIME), Strain/Sex: DA/MALE, Target Tissue: Type of Lesion: KIDNEY: TUBULAR CELL ADENOMA)?
Answer: 1/20 (5%), 0/20 (0%), 100%, not significant

Question: And the “tumour outcome (control, treated, inhibition, significance)” value (Dose [Inhibitor]: 1 G/L IN DRINKING WATER FOR LIFETIME (STUDY DURATION: LIFETIME), Strain/Sex: DA/MALE, Target Tissue: Type of Lesion: KIDNEY: TUBULAR CELL CARCINOMA)?
Answer: 6/20 (30%), 2/20 (40%), -33%, not significant

Question: What about the outcome (Dose [Inhibitor]: 1 G/L IN DRINKING WATER FOR LIFETIME (STUDY DURATION: LIFETIME), Strain/Sex: DA/MALE, Target Tissue: Type of Lesion: URETHRA: TRANSITIONAL CELL CARCINOMA) of the same compound?
Answer: 0/20 (0%), 0/20 (0%), 0%, not significant

Question: What about the outcome (Dose [Inhibitor]: 1 G/L IN DRINKING WATER FOR LIFETIME (STUDY DURATION: LIFETIME), Strain/Sex: DA/MALE, Target Tissue: Type of Lesion: URINARY BLADDER: TRANSITIONAL CELL PAPILLOMA) of the same compound?
Answer: 0/20 (0%), 0/20 (0%), 0%, not significant

Question: And the outcome (Dose [Inhibitor]: 1 G/L IN DRINKING WATER FOR LIFETIME (STUDY DURATION: LIFETIME), Strain/Sex: LEWIS/FEMALE, Target Tissue: Type of Lesion: KIDNEY: TUBULAR CELL ADENOMA)?
Answer: 0/20 (0%), 0/20 (0%), 0%, not significant

Question: And the outcome (Dose [Inhibitor]: 1 G/L IN DRINKING WATER FOR LIFETIME (STUDY DURATION: LIFETIME), Strain/Sex: LEWIS/FEMALE, Target Tissue: Type of Lesion: URETHRA: TRANSITIONAL CELL CARCINOMA)?
Answer: 0/20 (0%), 0/20 (0%), 0%, not significant

Question: What about the outcome (Dose [Inhibitor]: 1 G/L IN DRINKING WATER FOR LIFETIME (STUDY DURATION: LIFETIME), Strain/Sex: LEWIS/MALE, Target Tissue: Type of Lesion: KIDNEY: TUBULAR CELL ADENOMA) of the same compound?
Answer: 0/20 (0%), 0/20 (0%), 0%, not significant

Question: What about the “tumour outcome (control, treated, inhibition, significance)” value (Dose [Inhibitor]: 1 G/L IN DRINKING WATER FOR LIFETIME (STUDY DURATION: LIFETIME), Strain/Sex: LEWIS/MALE, Target Tissue: Type of Lesion: KIDNEY: TUBULAR CELL CARCINOMA) of the same compound?
Answer: 2/20 (10%), 1/20 (5%), 50%, not significant

Question: And the outcome (Dose [Inhibitor]: 1 G/L IN DRINKING WATER FOR LIFETIME (STUDY DURATION: LIFETIME), Strain/Sex: LEWIS/MALE, Target Tissue: Type of Lesion: URETHRA: TRANSITIONAL CELL CARCINOMA)?
Answer: 0/20 (0%), 0/20 (0%), 0%, not significant

Question: And the outcome (Dose [Inhibitor]: 1 G/L IN DRINKING WATER FOR LIFETIME (STUDY DURATION: LIFETIME), Strain/Sex: LEWIS/MALE, Target Tissue: Type of Lesion: URINARY BLADDER: TRANSITIONAL CELL CARCINOMA)?
Answer: 0/20 (0%), 0/20 (0%), 0%, not significant

Question: What about the outcome (Dose [Inhibitor]: 1 G/L IN DRINKING WATER FOR LIFETIME (STUDY DURATION: LIFETIME), Strain/Sex: LEWIS/MALE, Target Tissue: Type of Lesion: URINARY BLADDER: TRANSITIONAL CELL PAPILLOMA) of the same compound?
Answer: 0/20 (0%), 0/20 (0%), 0%, not significant

Question: What about the outcome (Dose [Inhibitor]: 1 G/LITER IN DRINKING WATER FOR LIFETIME (STUDY DURATION: LIFETIME), Strain/Sex: DA/FEMALE, Target Tissue: Type of Lesion: KIDNEY: TUBULAR CELL ADENOMA) of the same compound?
Answer: 0/40 (0%), 0/40 (0%), 0%, not significant

Question: And the outcome (Dose [Inhibitor]: 1 G/LITER IN DRINKING WATER FOR LIFETIME (STUDY DURATION: LIFETIME), Strain/Sex: DA/FEMALE, Target Tissue: Type of Lesion: KIDNEY: TUBULAR CELL CARCINOMA)?
Answer: 0/40 (0%), 0/40 (0%), 0%, not significant
